The values below come from paper PMC7589783, “Newly Synthesized Imino-Derivatives Analogues of Resveratrol Exert Inhibitory Effects in Breast Tumor Cells” (International Journal of Molecular Sciences, 2020).

In general, IC50 refers to the point on the concentration scale where inhibition reaches its midpoint.

The target of one data set is T1, human topoisomerase II (Homo sapiens, UniProt P11388).
T1 construct: purchased TopoGEN, Port Orange, FL, USA
Briefly: Human topoisomerase II (hTopoII) decatenation assay. The conditions noted are these: 50 μM. The format is biochemical. As for the experimental part: Human topoisomerase II decatenation assays were carried out incubating the human topoisomerase II (TopoGEN, Port Orange, FL, USA) with kinetoplast DNA (used as substrate) and all the tested compounds, according to the guidelines of the manufacturer (TopoGEN, Port Orange, FL, USA), with some modifications.

For a further data set, the target named is T2, recombinant human topo I (Homo sapiens, UniProt P11387).
T2 construct: purchased TopoGEN, Port Orange, FL, USA
T2 sequence (P11387 1-765): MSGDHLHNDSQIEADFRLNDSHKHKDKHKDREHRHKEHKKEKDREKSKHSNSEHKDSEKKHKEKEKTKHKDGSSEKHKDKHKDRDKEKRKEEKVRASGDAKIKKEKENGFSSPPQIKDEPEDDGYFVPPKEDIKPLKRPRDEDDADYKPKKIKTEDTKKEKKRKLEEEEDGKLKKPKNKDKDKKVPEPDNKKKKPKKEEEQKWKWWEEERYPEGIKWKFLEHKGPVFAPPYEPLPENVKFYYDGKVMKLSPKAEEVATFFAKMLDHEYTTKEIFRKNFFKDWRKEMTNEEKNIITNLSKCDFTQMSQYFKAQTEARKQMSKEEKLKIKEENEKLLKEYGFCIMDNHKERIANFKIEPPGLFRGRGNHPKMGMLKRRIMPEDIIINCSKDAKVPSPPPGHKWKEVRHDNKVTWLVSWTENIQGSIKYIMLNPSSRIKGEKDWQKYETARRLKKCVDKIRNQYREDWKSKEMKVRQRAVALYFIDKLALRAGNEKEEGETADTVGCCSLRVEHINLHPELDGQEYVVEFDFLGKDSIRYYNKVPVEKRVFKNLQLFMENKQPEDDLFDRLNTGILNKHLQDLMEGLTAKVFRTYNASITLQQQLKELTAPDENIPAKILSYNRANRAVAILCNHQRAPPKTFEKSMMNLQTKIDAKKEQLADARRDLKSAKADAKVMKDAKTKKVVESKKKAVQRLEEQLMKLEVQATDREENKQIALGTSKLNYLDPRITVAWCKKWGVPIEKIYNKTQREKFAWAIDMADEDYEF
Briefly: Human topoisomerase I (hTopoI) relaxation assay. Type of data set: biochemical. Particulars: 50 μM. As for the experimental part: Human topoisomerase I relaxation assays were performed incubating the supercoiled pHOT1 (used as substrate) with the recombinant human topo I (TopoGEN, Port Orange, FL, USA) and all the tested compounds, according to the guidelines of the manufacturer (TopoGEN, Port Orange, FL, USA), with some modifications.

Data set [1] concerns human embryonic kidney 293 (HEK293) cells. Briefly: MTT cell viability assay in HEK293 cells. The format is cell-based. Particulars: for IC50: Homo sapiens, HEK293, 48 h treatment, MTT assay, read-out: IC50 (µM) ± S.D. HEK293; for Anti-proliferative / inhibitory effects in non-tumoral HEK293 cells: result in words. Here is the method:
(§1) SkBr3 cells were maintained in RPMI-1640 (Life Technologies, Milan, Italy) without phenol red, supplemented with 5% fetal bovine serum (FBS) and 100 μg/mL penicillin/streptomycin (Life Technologies, Milan, Italy). MCF-7 and HEK-293 cells were maintained in DMEM (Dulbecco’s modified Eagle’s medium) (Life Technologies, Milan, Italy) with phenol red, with a supplement of 5% FBS and 100 μg/mL of penicillin/streptomycin.
(§2) The effects of each compound on cell viability were determined by the MTT [3-(4,5-dimethylthiazol-2-yl)-2,5-diphenyltetrazolium bromide] assay, as previously reported. Cells were seeded in quadruplicate in 96-well plates in regular growth medium and grown until 70–80% confluence. […] Relative cell viability was determined by MTT assay according to the manufacturer’s protocol (Sigma-Aldrich, Milan, Italy). Mean absorbance for each drug dose was expressed as a percentage of the control untreated well absorbance and plotted versus drug concentration. IC50 values represent the drugs concentration able to reduce the cells viability of 50% respect to the untreated control cells (vehicle).

The nature of data set [2]: In vitro bioavailability, dialysis tubing procedure with pepsin and pancreatin digestion. Type of data set: in vitro ADME. The conditions noted are these: for In vitro bioavailability (%) 4 h pH 7.0: after pancreatin digestion (4 h); for In vitro bioavailability (%) 2 h pH 1.0: after pepsin digestion (2 h); for In vitro bioavailability (%) Total 6 h: total after pepsin (2 h) and pancreatin (4 h) digestions. Here is the method:
In vitro bioavailability studies of compounds 3, 4 (the salt of compound 3) and resveratrol were performed in solutions simulating gastric and intestinal environment through a modified version of the traditional technique of dialysis membranes. The method of the dialysis membrane is divided in two enzymatic digestion phases: A first phase in which the action of pepsin occurs and a second phase in which participates the pancreatin (see experimental section). Bioavailability is defined as the percentage of analyte recovered in the bio-accessible fraction after in vitro digestion, in relation to the original undigested sample, as calculated according to the following equation [32]:Bioavailability (%) = (Bioaccessible content/Total content) × 100
In vitro bioavailability studies were performed according to the dialysis tubing procedure as previously reported in literature.
For this purpose, 100 µL of each tested compound (10 mM in DMSO) were employed and the concentration of each sample was determined using a UV/VIS spectrometer V-530 (Jasco, Cremella (LC), Italy).
The percentages were calculated according to the equations obtained from the prepared calibration curves at pH 1.0 and 7.0, respectively, for the two tested molecules.
The experiments were carried out in triplicate.

For data set [3], the system named is MCF-7 breast cancer cells. Briefly: MTT cell viability assay in MCF-7 cells. The conditions noted are these: Homo sapiens. The format is cell-based. As for the experimental part: as §1, §2
For orientation: Formazan colour is commonly taken as a measure of viable cells.

For data set [4], the system named is SkBr3 breast cancer cells. Briefly: MTT cell viability assay in SkBr3 cells. The format is cell-based. The conditions noted are these: Homo sapiens. As for the experimental part: as §1, §2
The test system of the next data set is MCF-7 cells. Briefly: TUNEL assay in MCF-7 cells. Type of data set: cell-based, human. Here is the method: (§3) Cell apoptosis was determined by TdT-mediated dUTP Nick-End Labeling (TUNEL) assay, conducted using DeadEnd Fluorometric TUNEL System (Promega, Milan, Italy) and performed according to the manufacturer’s instructions. […] After fixation, cells were permeabilized in 0.2% Triton X-100 solution in PBS for 5 min. After washing twice with washing buffer for 5 min, the cells were covered with equilibration buffer at room temperature for 5–10 min. The labeling reaction was performed using terminal deoxynucleotidyl transferase end-labeling TdT and fluorescein-dUTP cocktail for each sample and incubated for 1 h at 37 ◦C where TdT catalyzes the binding of fluorescein-dUTP to free 3′OH ends in the nicked DNA. After rinsing, cells were washed with 2 × SSC solution buffer and subsequently incubated with 4′,6-Diamidino-2-Phenylindole (DAPI, Sigma-Aldrich, Milan, Italy) to stain nuclei and analyzed using the Cytation 3 Cell Imaging Multimode Reader (BioTek, Winooski, VT, USA). Statistical analysis was done using ANOVA followed by Newman–Keuls’ testing to determine differences in means. p < 0.05 was considered as statistically significant.

A further data set has as its system SkBr3 cells. In words: TUNEL assay in SkBr3 cells. Type of data set: cell-based, human. Here is the method: as §3
Setting [5] is: MCF7, 48 h treatment, read-out: IC50 (µM) ± S.D. MCF-7.
[6] abbreviates: SK-BR-3, 48 h treatment, read-out: IC50 (µM) ± S.D. SkBr3.
Setting [7] is: 50 µM for 48 h (data not shown).

Where “and” joins values, the source holds several entries; their conditions need not be identical. Equal entries are not always repeated. Entries after “also recorded” stand apart in the source; their conditions may differ. Where two headings read alike, the source gives them in different places. Where only a bound is given, the exact number is not on record here.

T1 sequence (P11388 whole entry): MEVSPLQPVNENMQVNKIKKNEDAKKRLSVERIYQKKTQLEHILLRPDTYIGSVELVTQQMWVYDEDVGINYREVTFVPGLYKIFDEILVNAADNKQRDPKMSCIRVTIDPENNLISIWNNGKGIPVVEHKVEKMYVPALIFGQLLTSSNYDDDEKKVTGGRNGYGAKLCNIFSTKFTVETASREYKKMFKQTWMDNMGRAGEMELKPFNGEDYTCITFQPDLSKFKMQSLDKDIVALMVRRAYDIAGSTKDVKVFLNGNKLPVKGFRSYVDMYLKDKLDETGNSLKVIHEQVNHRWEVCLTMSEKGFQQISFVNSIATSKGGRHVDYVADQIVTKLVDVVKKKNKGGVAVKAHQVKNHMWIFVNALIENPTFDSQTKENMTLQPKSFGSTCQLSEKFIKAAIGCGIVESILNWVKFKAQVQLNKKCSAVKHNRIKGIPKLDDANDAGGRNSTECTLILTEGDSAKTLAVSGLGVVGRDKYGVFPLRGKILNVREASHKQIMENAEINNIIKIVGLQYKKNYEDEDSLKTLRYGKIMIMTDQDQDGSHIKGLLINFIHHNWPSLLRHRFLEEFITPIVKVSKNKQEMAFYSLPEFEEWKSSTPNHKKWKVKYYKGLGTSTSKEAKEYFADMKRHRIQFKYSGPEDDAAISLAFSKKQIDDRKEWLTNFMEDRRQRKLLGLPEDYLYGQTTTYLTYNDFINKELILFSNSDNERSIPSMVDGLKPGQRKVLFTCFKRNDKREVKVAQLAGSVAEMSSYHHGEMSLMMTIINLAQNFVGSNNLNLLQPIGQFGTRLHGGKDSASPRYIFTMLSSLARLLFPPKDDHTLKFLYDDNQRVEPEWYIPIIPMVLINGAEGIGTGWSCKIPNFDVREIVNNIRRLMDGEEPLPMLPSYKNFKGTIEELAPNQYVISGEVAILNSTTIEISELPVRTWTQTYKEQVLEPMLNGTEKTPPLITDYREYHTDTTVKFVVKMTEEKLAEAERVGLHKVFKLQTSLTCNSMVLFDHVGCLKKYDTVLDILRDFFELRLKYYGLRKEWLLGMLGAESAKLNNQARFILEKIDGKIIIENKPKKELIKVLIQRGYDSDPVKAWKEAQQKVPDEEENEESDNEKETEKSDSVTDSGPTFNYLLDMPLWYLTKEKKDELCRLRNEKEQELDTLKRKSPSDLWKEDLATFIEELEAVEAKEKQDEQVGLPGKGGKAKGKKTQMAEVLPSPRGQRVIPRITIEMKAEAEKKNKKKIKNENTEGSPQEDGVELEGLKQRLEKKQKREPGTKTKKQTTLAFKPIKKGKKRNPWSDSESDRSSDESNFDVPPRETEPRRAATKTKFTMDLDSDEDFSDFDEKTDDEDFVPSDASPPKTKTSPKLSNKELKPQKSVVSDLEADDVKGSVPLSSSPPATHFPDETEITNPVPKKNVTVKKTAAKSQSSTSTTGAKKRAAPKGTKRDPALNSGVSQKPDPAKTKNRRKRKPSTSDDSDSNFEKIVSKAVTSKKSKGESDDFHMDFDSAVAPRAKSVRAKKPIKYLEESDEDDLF

On to `Oc1ccc(C=Cc2cc(O)cc(O)c2)cc1` [resveratrol, 3, 4′,5-trihydroxy-stilbene], for which, at human topoisomerase II, the “Inhibition of hTopoII activity (kDNA decatenation)” value (“Inhibition of hTopoII activity” for short) was “inhibited the hTopoII”. For the same compound, the “Inhibition of hTopoI (relaxation of supercoiled DNA)” value on recombinant human topo I is listed as “no inhibition of hTopoI was observed”. For the same compound, the IC50 in data set [1] is above 90 µM. In data set [2], the “In vitro bioavailability (%) 4 h pH 7.0” value worked out at 23 ± 0.8%; the “In vitro bioavailability (%) 2 h pH 1.0” value worked out at 12 ± 0.6%; the “In vitro bioavailability (%) Total 6 h” value was 35% and 35 ± 1.1%. The IC50 in data set [3] (setting [5]) was above 90 µM. The concentration for half-maximal inhibition (IC50) in data set [4] (setting [6]) was above 90 µM.

With `O=C(O)c1ccc(/N=C/c2cc(O)cc(O)c2)cc1` [Compound 6, (E)-4-(3,5-dihydroxybenzylidene)-imino-benzoic acid], the IC50 in data set [1], in data set [3] (setting [5]) and in data set [4] (setting [6]) was above 90 µM each time.

For `O=C(O)c1ccc(/N=C/c2cc(O)ccc2O)cc1` [Compound 3, (E)-4-(2,5-dihydroxybenzylidene)-imino-benzoic acid], on human topoisomerase II, the “Inhibition of hTopoII activity” value is reported as “able to inhibit”. Besides, the “Inhibition of hTopoI (relaxation of supercoiled DNA)” value at recombinant human topo I was “no inhibition of hTopoI was observed”. In data set [1], the concentration for half-maximal inhibition (IC50) was above 90 µM and the “Anti-proliferative / inhibitory effects in non-tumoral HEK293 cells” value is on record as “did not elicit inhibitory effects; also recorded: did not induce inhibitory effects”. In addition, in data set [2], the “In vitro bioavailability (%) 4 h pH 7.0” value was 31% and 31 ± 1.1%; the “In vitro bioavailability (%) 2 h pH 1.0” value was 16% and 16 ± 0.7%; the “In vitro bioavailability (%) Total 6 h” value is 47% and 47 ± 1.6%. In the data set with MCF-7 cells (10 μM for 24 h, versus vehicle), the “Percentage of TUNEL-positive cells, MCF-7” value was “increased the percentage”. Besides, the 50% inhibitory concentration (IC50) in data set [3] (setting [5]) was 12 µM. Besides, in data set [4] (setting [6]), the IC50 worked out at 15 µM. Also, in the data set on SkBr3 cells (10 μM for 24 h, versus vehicle), the “Percentage of TUNEL-positive cells, SkBr3” value is listed as “increased the percentage”.

Regarding `O=C(O)c1ccc(/N=C/c2cc(O)ccc2O)cc1` [Compound 4, (E)-4-(2,5-dihydroxybenzylidene)-imino-sodium benzoate], the “Inhibition of hTopoII activity” value on human topoisomerase II is given as “able to inhibit”. Besides, the “Inhibition of hTopoI (relaxation of supercoiled DNA)” value at recombinant human topo I is given as “no inhibition of hTopoI was observed”. For the same compound, the “Anti-proliferative / inhibitory effects in non-tumoral HEK293 cells” value in data set [1] is “did not elicit anti-proliferative effects; also recorded: did not induce inhibitory effects”. For the same compound, in data set [2], the “In vitro bioavailability (%) 4 h pH 7.0” value was 28% and 28 ± 0.9%; the “In vitro bioavailability (%) 2 h pH 1.0” value was 17% and 17 ± 0.8%; the “In vitro bioavailability (%) Total 6 h” value is 45% and 45 ± 1.3%. Further, the “TUNEL staining, MCF-7” value with MCF-7 cells (setting [7]) is “positive for TUNEL staining”. Also, in data set [3] (MCF7, treatment time not given, read-out: IC50, cytotoxic activity, MCF-7), the concentration for half-maximal inhibition (IC50) is 50 µM. In addition, the IC50 in data set [4] (SK-BR-3, treatment time not given, read-out: IC50, cytotoxic activity, SkBr3) came out at 62 µM. Moreover, the “TUNEL staining, SkBr3” value in the data set with SkBr3 cells (setting [7]) was “positive for TUNEL staining”.
